Assay results taken from PubChem BioAssay AID1918995 (Molecular Pharmacology Branch, DTP, NCI, 2023).

System: 324938-238-R-J1-PDC complex spheroid growth, % test/control
Experiment: Anticancer human tumor 324938-238-R-J1-PDC patient-derived bladder carcinoma cell line growth inhibition [AhR]
Settings: for IC50: curve of first compound; for viability, T/C: stronger effect = lower value
Text: Multicellular complex tumor spheroid response to aryl hydrocarbon receptor antagonists in combination with a variety of drugs and investigational agents in selected tumor cell lines
The current study was undertaken to assess response to aryl hydrocarbon receptor antagonists in combination with standard-of-care drugs and investigational agents in solid tumor complex spheroid models. Complex spheroids include a stromal component modeled by human endothelial cells (HUVEC) and fibroblasts modeled by human mesenchymal stem cells (MSCs). The concentration ranges selected for each drug and investigational agent were based upon clinically achievable concentrations if the clinical Cmax of the agent was known.
Compounds. The drugs and investigational agents: BAY 2416964 (NSC825713), GNF351 (NSC835774), CH-223191 (NSC835775), CPI-455 (NSC825282), aza-TdCyd (NSC777586), decitabine (NSC127716), belinostat (NSC758774), entinostat (NSC756642), pevonedistat (NSC761192), tazemetostat (NSC777109), talazoparib (NSC765396), olaparib (NSC753686), selinexor (NSC780203), nedisertib (M3814, NSC802822), bortezomib (NSC756655), venetoclax (NSC766270), doxorubicin (NSC123127), elimusertib (BAY189344, NSC800525), ceralasertib (AZD6738, NSC777638), TAK-243 (NSC785004), alisertib (NSC759677), etoposide (NSC141540), topotecan (NSC609699), eribulin (NSC707389), gemcitabine (NSC613327), carboplatin (NSC241240), cisplatin (NSC119875), and SN-38 (NSC673596) were obtained from the National Cancer Institute (NCI) Developmental Therapeutics Program Chemical Repository (32). The FDA-approved anticancer drug set is available from the Developmental Therapeutics Program at https://dtp.cancer.gov/organization/dscb/obtaining/available plates.htm. […] The stock solutions were prepared in dimethyl sulfoxide (DMSO, Sigma-Aldrich, St. Louis, MO, cat. D2650), except for the platinum compounds which were prepared in saline (Quality Biological, Gaithersburg, MD, cat. 114-055-101), at 800-fold the tested concentration and stored at -70 degrees C prior to their use. All drugs and investigational agents were tested over a range starting from a high concentration at or near the clinical Cmax and decreasing in half-log increments. If the clinical Cmax for an agent had not been determined, the highest concentration tested was 10 microM (Table 1).
Cell Culture. All cells were maintained in an incubator at 37 degrees C and 5% CO2 with 95% humidity. The PDC lines were cultured according to standard operating procedures established by the NCI PDMR (https://pdmr.cancer.gov). Briefly, all PDCs were thawed and cultured in Matrigel-coated flasks prepared with a working solution of 1X Ham's F-12 nutrient mix, without supplementation (Invitrogen, Waltham, MA, cat. 11765054), 100 U/mL penicillin-streptomycin (Invitrogen, cat. 15140122), and 2.5% Matrigel (Corning Inc., Corning, NY, cat. 354248) for the first three passages. All PDCs were cultured in complete DMEM/F-12 media containing advanced DMEM/F-12 (Invitrogen, cat. 12634028), 4.9% defined fetal bovine serum, heat inactivated (HyClone Laboratories Inc., Logan, UT, cat. SH30070.03HI), 389 ng/mL hydrocortisone (Sigma-Aldrich, cat. H4001), 9.7 ng/mL human EGF recombinant protein (Invitrogen, cat. PHG0313), 23.4 microg/mL adenine (Sigma-Aldrich, cat. A2786), 97.3 U/mL penicillin-streptomycin (Invitrogen, cat. 15140122), 1.9 mM L-glutamine (Invitrogen, cat. 25030081), and 9.7 microM Y-27632 dihydrochloride (Tocris Bioscience, Bristol, United Kingdom, cat. 1254). The PDCs were cultured in complete DMEM/F12 media without 10 microM Y-27632 dihydrochloride for at least two passages prior to the screen. The established cell lines NCI-H1341 and […] were cultured in DMEM/F-12, HEPES (Invitrogen, cat. 11330032), 5% defined fetal bovine serum (HyClone Laboratories Inc., cat. SH30070.03), ITS premix universal culture supplement [insulin (5 microg/mL), transferrin (5 microg/mL), and selenious acid (5 ng/mL)] […]

[1] = second compound 0.1 µM, first compound 0.00949 µM
[2] = second compound 0.1 µM, first compound 0.03 µM
[3] = second compound 0.1 µM, first compound 0.0949 µM
[4] = second compound 0.1 µM, first compound 0.3 µM
[5] = second compound 0.316 µM, first compound 0.00949 µM
[6] = second compound 0.316 µM, first compound 0.03 µM
[7] = second compound 0.316 µM, first compound 0.0949 µM
[8] = second compound 0.316 µM, first compound 0.3 µM
[9] = second compound 1 µM, first compound 0.00949 µM
[10] = second compound 1 µM, first compound 0.03 µM
[11] = second compound 1 µM, first compound 0.0949 µM
[12] = second compound 1 µM, first compound 0.3 µM
[13] = second compound 3.16 µM, first compound 0.00949 µM
[14] = second compound 3.16 µM, first compound 0.03 µM
[15] = second compound 3.16 µM, first compound 0.0949 µM
[16] = second compound 3.16 µM, first compound 0.3 µM
[17] = second compound 10 µM, first compound 0.00949 µM
[18] = second compound 10 µM, first compound 0.03 µM
[19] = second compound 10 µM, first compound 0.0949 µM
[20] = second compound 10 µM, first compound 0.3 µM
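Also: spheroids exposed to agents for seven days before viability read.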

For CCc1c2c(nc3ccc(O)cc13)-c1cc3c(c(=O)n1C2)COC(=O)[C@]3(O)CC + Cc1cncc(-c2nc(NCCc3c[nH]c4ccccc34)c3ncn(C(C)C)c3n2)c1, the IC50 (second compound 0.1 µM) was over 0.3 µM, the IC50 (second compound 0.316 µM) was over 0.3 µM and the IC50 (second compound 1 µM) was over 0.3 µM. For the same compound, the IC50 (second compound 3.16 µM) was 0.204 µM, the IC50 (second compound 10 µM) was under 0.000949 µM and the viability, T/C (second compound 0.1 µM, first compound 0.000949 µM) was 89.1%. The viability, T/C (second compound 0.1 µM, first compound 0.003 µM) was 71.7%, the viability, T/C [1] was 91.8% and the viability, T/C [2] was 65.7%. The viability, T/C [3] was 83.1%, the viability, T/C [4] was 80.9% and the viability, T/C (second compound 0.316 µM, first compound 0.000949 µM) was 82.3%. For the same compound, the viability, T/C (second compound 0.316 µM, first compound 0.003 µM) was 81.9%, the viability, T/C [5] was 102% and the viability, T/C [6] was 97.3%. It also gave a viability, T/C [7] of 63.5%, a viability, T/C [8] of 61.4% and a viability, T/C (second compound 1 µM, first compound 0.000949 µM) of 88.5%. The viability, T/C (second compound 1 µM, first compound 0.003 µM) was 71.3%, the viability, T/C [9] was 93.6% and the viability, T/C [10] was 76%. The viability, T/C [11] was 73.9%, the viability, T/C [12] was 70.3% and the viability, T/C (second compound 3.16 µM, first compound 0.000949 µM) was 71.7%. It also gave a viability, T/C (second compound 3.16 µM, first compound 0.003 µM) of 95.7%, a viability, T/C [13] of 91.7% and a viability, T/C [14] of 79.3%. The viability, T/C [15] was 55.4%, the viability, T/C [16] was 47.2% and the viability, T/C (second compound 10 µM, first compound 0.000949 µM) was 2.77%. The viability, T/C (second compound 10 µM, first compound 0.003 µM) was 3.5%, the viability, T/C [17] was 8.95% and the viability, T/C [18] was 6.69%. It also gave a viability, T/C [19] of 10.2% and a viability, T/C [20] of 10.6%.

For CC1(C)CCC(CN2CCN(c3ccc(C(=O)NS(=O)(=O)c4ccc(NCC5CCOCC5)c([N+](=O)[O-])c4)c(Oc4cnc5[nH]ccc5c4)c3)CC2)=C(c2ccc(Cl)cc2)C1 + Cc1ccccc1N=Nc1ccc(NC(=O)c2ccnn2C)c(C)c1, the IC50 (second compound 0.1 µM) was 9.57 µM, the IC50 (second compound 0.316 µM) was over 10 µM and the IC50 (second compound 1 µM) was 8.76 µM. The IC50 (second compound 3.16 µM) was 6 µM, the IC50 (second compound 10 µM) was 5.68 µM and the viability, T/C (second compound 0.1 µM, first compound 0.0316 µM) was 87.7%. It also gave a viability, T/C (second compound 0.1 µM, first compound 0.1 µM) of 92.8%, a viability, T/C (second compound 0.1 µM, first compound 0.316 µM) of 93.6% and a viability, T/C (second compound 0.1 µM, first compound 1 µM) of 87.8%. The viability, T/C (second compound 0.1 µM, first compound 3.16 µM) was 80.7%, the viability, T/C (second compound 0.1 µM, first compound 10 µM) was 48.8% and the viability, T/C (second compound 0.316 µM, first compound 0.0316 µM) was 89.4%. It also gave a viability, T/C (second compound 0.316 µM, first compound 0.1 µM) of 90.5%, a viability, T/C (second compound 0.316 µM, first compound 0.316 µM) of 88% and a viability, T/C (second compound 0.316 µM, first compound 1 µM) of 83.3%. For the same compound, the viability, T/C (second compound 0.316 µM, first compound 3.16 µM) was 72%, the viability, T/C (second compound 0.316 µM, first compound 10 µM) was 52% and the viability, T/C (second compound 1 µM, first compound 0.0316 µM) was 83.5%. It also gave a viability, T/C (second compound 1 µM, first compound 0.1 µM) of 85.8%, a viability, T/C (second compound 1 µM, first compound 0.316 µM) of 80.7% and a viability, T/C (second compound 1 µM, first compound 1 µM) of 71.8%. The viability, T/C (second compound 1 µM, first compound 3.16 µM) was 71.1%, the viability, T/C (second compound 1 µM, first compound 10 µM) was 46.7% and the viability, T/C (second compound 3.16 µM, first compound 0.0316 µM) was 72.4%. For the same compound, the viability, T/C (second compound 3.16 µM, first compound 0.1 µM) was 71.8%, the viability, T/C (second compound 3.16 µM, first compound 0.316 µM) was 68.9% and the viability, T/C (second compound 3.16 µM, first compound 1 µM) was 69%. It also gave a viability, T/C (second compound 3.16 µM, first compound 3.16 µM) of 61.3%, a viability, T/C (second compound 3.16 µM, first compound 10 µM) of 41% and a viability, T/C (second compound 10 µM, first compound 0.0316 µM) of 73.8%. The viability, T/C (second compound 10 µM, first compound 0.1 µM) was 70.2%, the viability, T/C (second compound 10 µM, first compound 0.316 µM) was 69.6% and the viability, T/C (second compound 10 µM, first compound 1 µM) was 67.9%. The viability, T/C (second compound 10 µM, first compound 3.16 µM) was 58% and the viability, T/C (second compound 10 µM, first compound 10 µM) was 41.9%.

CCN(c1cc(-c2ccc(CN3CCOCC3)cc2)cc(C(=O)NCc2c(C)cc(C)[nH]c2=O)c1C)C1CCOCC1 + CC(CO)NC(=O)c1cc(-c2ccc(Cl)cc2)nn(-c2cnn(C)c2)c1=O gave an IC50 (second compound 0.1 µM) of over 3 µM, an IC50 (second compound 0.316 µM) of over 3 µM and an IC50 (second compound 1 µM) of over 3 µM. The IC50 (second compound 3.16 µM) was over 3 µM, the IC50 (second compound 10 µM) was over 3 µM and the viability, T/C [1] was 105%. The viability, T/C [2] was 114%, the viability, T/C [3] was 107% and the viability, T/C [4] was 101%. For the same compound, the viability, T/C (second compound 0.1 µM, first compound 0.949 µM) was 95%, the viability, T/C (second compound 0.1 µM, first compound 3 µM) was 101% and the viability, T/C [5] was 102%. The viability, T/C [6] was 96.3%, the viability, T/C [7] was 92.8% and the viability, T/C [8] was 94.8%. It also gave a viability, T/C (second compound 0.316 µM, first compound 0.949 µM) of 96.6%, a viability, T/C (second compound 0.316 µM, first compound 3 µM) of 93.2% and a viability, T/C [9] of 88%. The viability, T/C [10] was 92.4%, the viability, T/C [11] was 89.2% and the viability, T/C [12] was 98.3%. The viability, T/C (second compound 1 µM, first compound 0.949 µM) was 90.2%, the viability, T/C (second compound 1 µM, first compound 3 µM) was 88.9% and the viability, T/C [13] was 79.3%. It also gave a viability, T/C [14] of 80.6%, a viability, T/C [15] of 76.7% and a viability, T/C [16] of 72.5%. The viability, T/C (second compound 3.16 µM, first compound 0.949 µM) was 77.3%, the viability, T/C (second compound 3.16 µM, first compound 3 µM) was 77.6% and the viability, T/C [17] was 70.4%. It also gave a viability, T/C [18] of 69%, a viability, T/C [19] of 67.5% and a viability, T/C [20] of 77.3%. It also gave a viability, T/C (second compound 10 µM, first compound 0.949 µM) of 66.3% and a viability, T/C (second compound 10 µM, first compound 3 µM) of 74.1%.
